# According to PMC5654082 (Malaria Journal, 2017):
# Counter-ions that a name gives are not always drawn. Like-named read-outs stand apart in the source and are kept apart here. Marks after values point to notes of the source that are not given here.
# Legend:
# [1] = target: T1, human OCT2 (Homo sapiens, UniProt O15244); test: Inhibition of OCT2-mediated ASP uptake in transduced HEK293 cells; type: cell-based
# T1 construct: host or cells: HEK293, baculovirus transduction (CMV promoter), transient
# T1 sequence (O15244 1-555): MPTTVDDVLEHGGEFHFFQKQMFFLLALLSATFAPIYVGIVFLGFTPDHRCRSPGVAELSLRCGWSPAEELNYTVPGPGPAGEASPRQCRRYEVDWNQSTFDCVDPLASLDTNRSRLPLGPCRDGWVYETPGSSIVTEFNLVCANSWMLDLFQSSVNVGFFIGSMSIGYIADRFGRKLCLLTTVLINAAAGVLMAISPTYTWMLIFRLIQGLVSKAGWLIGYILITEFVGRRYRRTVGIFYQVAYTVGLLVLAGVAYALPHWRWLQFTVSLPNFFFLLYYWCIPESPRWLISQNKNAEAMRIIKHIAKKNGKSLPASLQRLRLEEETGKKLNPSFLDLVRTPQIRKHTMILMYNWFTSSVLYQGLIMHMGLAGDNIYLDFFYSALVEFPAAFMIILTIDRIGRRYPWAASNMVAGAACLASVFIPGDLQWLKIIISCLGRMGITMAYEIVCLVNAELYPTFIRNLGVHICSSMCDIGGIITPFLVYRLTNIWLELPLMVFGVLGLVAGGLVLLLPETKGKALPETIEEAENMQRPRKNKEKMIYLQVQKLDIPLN
# Procedure: HEK293 cells were modified to transiently express (a combination of) human OCT1, OCT2, MATE1, MATE2-K, or eYFP. Briefly, cDNA of the respective genes was cloned downstream of a CMV promoter into a baculovirus, of which passage three was used to transduce HEK293 cells. These cells were seeded in poly-D-lysine coated 24- or 96-wells plates and grown in a 37 °C incubator at 5% CO2. […] After 24 h, cells were transduced with 30 µL virus (10 µL virus + 20 µL complete medium in case of 96-wells plates) or 2 × 15 µL virus for cells that required simultaneous expression of two transporters. Finally, 195 µL sodium butyrate (45 µL for 96-wells plates) was added to a final concentration of 2 mM to enhance protein expression.
# AMO (10 mM), ASP (1 mM), CQ (10 mM), PQ (10 mM) and PG (10 mM) were dissolved in MilliQ water. ART (10 mM), ATO (10 mM), DHA (10 mM), LUM (10 mM), MQ (10 mM), NMQ (20 mM), PYR (10 mM), QN (10 mM) were dissolved in DMSO. All compound stocks were stored at − 20 °C. Inhibition of OCT1- or OCT2-mediated ASP uptake by anti-malarials was performed in poly-D-lysine coated 96-wells plates 2 or 3 days following HEK293 cell transduction. In short, cells were washed with 125 µL 37 °C HBSS containing 10 mM HEPES, pH 7.4. […] ASP transport was stopped by washing with 125 µL ice-cold HBSS-HEPES buffer supplemented with 0.5% BSA.
# (§1) For each compound, a range of seven concentrations was used to determine the concentration at which ASP uptake was inhibited half maximally (IC50). At least three independent experiments (4 for QN) were performed for each drug in triplicate as described above. […] To generate the final dose–response inhibition curve per anti-malarial, percentage of uptake was averaged for each drug concentration per experiment and the resulting mean ± SEM corresponding to three or four independent experiments were plotted.
# [2] = target: T2, human OCT1 (Homo sapiens, UniProt O15245); test: Inhibition of OCT1-mediated ASP uptake in transduced HEK293 cells; type: cell-based; settings: 50 µM anti-malarial, 10 µM ASP, 10 min, 37 °C; relative to solvent control fixed at 100%
# T2 construct: host or cells: HEK293, baculovirus transduction (CMV promoter), transient
# T2 sequence (O15245 1-554): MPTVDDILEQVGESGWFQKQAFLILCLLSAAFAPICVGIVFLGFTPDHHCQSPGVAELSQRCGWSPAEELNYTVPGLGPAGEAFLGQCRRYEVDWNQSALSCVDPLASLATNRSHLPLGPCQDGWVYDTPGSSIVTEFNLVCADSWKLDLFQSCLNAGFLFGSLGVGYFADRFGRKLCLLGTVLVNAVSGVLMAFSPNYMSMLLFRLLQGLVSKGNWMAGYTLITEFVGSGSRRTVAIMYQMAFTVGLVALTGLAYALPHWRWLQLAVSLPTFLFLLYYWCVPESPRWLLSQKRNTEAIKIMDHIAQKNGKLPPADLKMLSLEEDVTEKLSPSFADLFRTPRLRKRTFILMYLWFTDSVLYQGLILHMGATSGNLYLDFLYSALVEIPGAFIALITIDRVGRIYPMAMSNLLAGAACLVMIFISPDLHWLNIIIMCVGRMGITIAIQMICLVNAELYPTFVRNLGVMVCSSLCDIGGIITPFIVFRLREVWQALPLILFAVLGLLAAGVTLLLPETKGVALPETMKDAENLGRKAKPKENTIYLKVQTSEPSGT
# Procedure: (§2) HEK293 cells were modified to transiently express (a combination of) human OCT1, OCT2, MATE1, MATE2-K, or eYFP. Briefly, cDNA of the respective genes was cloned downstream of a CMV promoter into a baculovirus, of which passage three was used to transduce HEK293 cells. These cells were seeded in poly-D-lysine coated 24- or 96-wells plates and grown in a 37 °C incubator at 5% CO2. Growth was initiated at ~ 25% confluency using 375 or 125 μL cell and complete medium (DMEM + GlutaMAX™-I supplemented with 10% fetal bovine serum) suspension per well, respectively. After 24 h, cells were transduced with 30 µL virus (10 µL virus + 20 µL complete medium in case of 96-wells plates) or 2 × 15 µL virus for cells that required simultaneous expression of two transporters. Finally, 195 µL sodium butyrate (45 µL for 96-wells plates) was added to a final concentration of 2 mM to enhance protein expression.
# AMO (10 mM), ASP (1 mM), CQ (10 mM), PQ (10 mM) and PG (10 mM) were dissolved in MilliQ water. ART (10 mM), ATO (10 mM), DHA (10 mM), LUM (10 mM), MQ (10 mM), NMQ (20 mM), PYR (10 mM), QN (10 mM) were dissolved in DMSO. All compound stocks were stored at − 20 °C. Inhibition of OCT1- or OCT2-mediated ASP uptake by anti-malarials was performed in poly-D-lysine coated 96-wells plates 2 or 3 days following HEK293 cell transduction. In short, cells were washed with 125 µL 37 °C HBSS containing 10 mM HEPES, pH 7.4. Then, a 50 µL mixture of ASP (10 µM) and anti-malarial compound (25, 50 or 100 µM) in HBSS buffer (pH 7.4) was added to each well and incubated for 10 min at 37 °C. ASP transport was stopped by washing with 125 µL ice-cold HBSS-HEPES buffer supplemented with 0.5% BSA. Following a second wash with 125 µL ice-cold HBSS-HEPES buffer, cells were lysed with 125 µL 1 M NaOH and ASP was excited at a wavelength of 485 nm and fluorescence was detected at an emission wavelength of 535 nm using the Victor X3 multimode plate reader.
# as §1, with “above. Inhibition curves were plotted by nonlinear regression analyses of the data using GraphPad Prism version 5.03.” for “above.”
# [3] = Maximum plasma concentration from in vivo pharmacokinetic studies after therapeutic dosing; settings: human, the literature Cmax (ng/mL) of Table 2 expressed in µM
# Excerpt: As Cmax the (geometric) mean or median maximum plasma concentrations obtained from previous in vivo pharmacokinetic studies after therapeutic dosing was used.
# [4] = Ugandan children aged 5–13 years with uncomplicated malaria; (geometric) mean or median; cited from earlier work
# [5] = cited from earlier work
# [6] = target: T2, human OCT1; test: OCT1-mediated cellular import in transduced HEK293 cells (LC-MS/MS); type: cell-based; settings: 10 µM, 15 min, 37 °C
# Procedure: as §2
# HEK293 cells were seeded in 24-wells poly-D-lysine coated plates and transduced the subsequent day with OCT1 or OCT2 as described above. Three days following transduction, OCT1- or OCT2-mediated uptake of ten anti-malarials (AMO, ART, ATO, CQ, DHA, LUM, MQ, PQ, PG, and QN) was performed. NMQ served as a positive substrate for both OCT1 and OCT2 import. In short, cells were washed with 400 µL 37 °C HBSS-HEPES buffer followed by adding 150 µL HBSS buffer with 10 µM anti-malarial or NMQ to each well. After incubation for 15 min at 37 °C, import was stopped by washing with 400 µL ice-cold HBSS-HEPES buffer supplemented with 0.5% BSA. Following a second wash with 400 µL ice-cold HBSS-HEPES buffer, cells were lysed with 200 µL 50% (v/v) MeOH and 0.1% (v/v) formic acid (HCOOH) in water and samples were sent for quantification by mass spectrometry analysis (see “LC–MS/MS quantification of anti-malarials” section). […]
# (§3) The affinity (KM) and maximum transport rate (Vmax) for OCT1 and OCT2 of PG were determined by analysing concentration-dependent uptake data from three independent experiments.
# Import and export of PG and cycloguanil (CG) was assessed by single and double transduced HEK293 cells. […] Following the same procedure as for the cellular import assay described above, the import of 100 µM PG and CG was measured after 5 min incubation and data was plotted as mean pmol/mg/min ± SEM. […] Significant reduction in uptake (i.e. export by MATEs) was determined using ln transformation and a one-way repeated measures ANOVA with Dunnet’s post test.
# Anti-malarial concentration in the cell lysates was quantified using an LC–MS/MS system consisting of a UPLC, a binary solvent manager, a vacuum degasser and an autosampler, coupled to a Xevo TQ-S micro triple quadrupole mass spectrometer. […]
# [7] = target: T1, human OCT2; test: OCT2-mediated cellular import in transduced HEK293 cells (LC-MS/MS); type: cell-based; settings: 10 µM, 15 min, 37 °C
# Procedure: as §2
# HEK293 cells were seeded in 24-wells poly-D-lysine coated plates and transduced the subsequent day with OCT1 or OCT2 as described above. Three days following transduction, OCT1- or OCT2-mediated uptake of ten anti-malarials (AMO, ART, ATO, CQ, DHA, LUM, MQ, PQ, PG, and QN) was performed. […] Following a second wash with 400 µL ice-cold HBSS-HEPES buffer, cells were lysed with 200 µL 50% (v/v) MeOH and 0.1% (v/v) formic acid (HCOOH) in water and samples were sent for quantification by mass spectrometry analysis (see “LC–MS/MS quantification of anti-malarials” section). […]
# as §3
# Import and export of PG and cycloguanil (CG) was assessed by single and double transduced HEK293 cells. […] Following the same procedure as for the cellular import assay described above, the import of 100 µM PG and CG was measured after 5 min incubation and data was plotted as mean pmol/mg/min ± SEM. […] Significant reduction in uptake (i.e. export by MATEs) was determined using ln transformation and a one-way repeated measures ANOVA with Dunnet’s post test. […]
# [8] = substrate: [H]/N=C(\N/C(=N/[H])Nc1ccc(Cl)cc1)NC(C)C; test: OCT1-mediated cellular import in transduced HEK293 cells (LC-MS/MS); type: cell-based, human; settings: other: 1 min incubation, 37 °C, 2.0–16 µM, pH 7.4
# Procedure: HEK293 cells were modified to transiently express (a combination of) human OCT1, OCT2, MATE1, MATE2-K, or eYFP. Briefly, cDNA of the respective genes was cloned downstream of a CMV promoter into a baculovirus, of which passage three was used to transduce HEK293 cells. These cells were seeded in poly-D-lysine coated 24- or 96-wells plates and grown in a 37 °C incubator at 5% CO2. Growth was initiated at ~ 25% confluency using 375 or 125 μL cell and complete medium (DMEM + GlutaMAX™-I supplemented with 10% fetal bovine serum) suspension per well, respectively. […]
# HEK293 cells were seeded in 24-wells poly-D-lysine coated plates and transduced the subsequent day with OCT1 or OCT2 as described above. […] Following a second wash with 400 µL ice-cold HBSS-HEPES buffer, cells were lysed with 200 µL 50% (v/v) MeOH and 0.1% (v/v) formic acid (HCOOH) in water and samples were sent for quantification by mass spectrometry analysis (see “LC–MS/MS quantification of anti-malarials” section). […]
# as §3
# Import and export of PG and cycloguanil (CG) was assessed by single and double transduced HEK293 cells. […]
# [9] = 50 µM anti-malarial, 10 µM ASP, 10 min, 37 °C, relative to solvent control fixed at 100%
molecule,measurement,setting,value
"CCN(CC)CCCC(C)Nc1ccnc2cc(Cl)ccc12 (centres unmarked) [Chloroquine, chloroquine diphosphate]",Relative ASP uptake (OCT2-mediated),[1],48 ± 11%
"C[C@@H]1CC[C@H]2[C@@H](C)C(=O)O[C@@H]3O[C@@]4(C)CC[C@@H]1[C@]32OO4 [Artemisinin, artemisinin]",Relative ASP uptake (OCT2-mediated),[1]; [9],61 ± 13%
"CCN(CC)Cc1cc(Nc2ccnc3cc(Cl)ccc23)ccc1O [Amodiaquine, amodiaquine dihydrochloride dehydrate]",Relative ASP uptake (OCT1-mediated),[2],67 ± 4%
same,IC50,"[1]; 10 µM ASP, 10 min, 37 °C, seven concentrations",11 µM
same,Relative ASP uptake (OCT2-mediated),[1]; [9],12.1 ± 0.6%
same,Cmax,[3],0.015 µM
same,Cmax,[4],5.2^c [45] ng/mL
same,Unbound fraction,[5],0.1 [46]
"COc1cc(NC(C)CCCN)c2ncccc2c1 (centres unmarked) [Primaquine, primaquine diphosphate]",Relative ASP uptake (OCT1-mediated),[2],59 ± 3%
same,Relative ASP uptake (OCT2-mediated),[1]; [9],60 ± 7%
"OC(c1cc(C(F)(F)F)nc2c(C(F)(F)F)cccc12)C1CCCCN1 (centres unmarked) [Mefloquine, mefloquine hydrochloride]",Relative ASP uptake (OCT1-mediated),[2],150 ± 21%
"C=C[C@H]1C[N+]2(C)CC[C@H]1C[C@@H]2[C@@H](O)c1ccnc2ccc(OC)cc12 [NMQ, N-methyl-quinidine]","Uptake by OCT1, percentage of mock-transduced control",[6],taken up
same,"Uptake by OCT2, percentage of mock-transduced control",[7],taken up
"human OCT1 (Homo sapiens) (protein, host or cells: HEK293, baculovirus transduction (CMV promoter), transient) MPTVDDILEQVGESGWFQKQAFLILCLLSAAFAPICVGIVFLGFTPDHHCQSPGVAELSQRCGWSPAEELNYTVPGLGPAGEAFLGQCRRYEVDWNQSALSCVDPLASLATNRSHLPLGPCQDGWVYDTPGSSIVTEFNLVCADSWKLDLFQSCLNAGFLFGSLGVGYFADRFGRKLCLLGTVLVNAVSGVLMAFSPNYMSMLLFRLLQGLVSKGNWMAGYTLITEFVGSGSRRTVAIMYQMAFTVGLVALTGLAYALPHWRWLQLAVSLPTFLFLLYYWCVPESPRWLLSQKRNTEAIKIMDHIAQKNGKLPPADLKMLSLEEDVTEKLSPSFADLFRTPRLRKRTFILMYLWFTDSVLYQGLILHMGATSGNLYLDFLYSALVEIPGAFIALITIDRVGRIYPMAMSNLLAGAACLVMIFISPDLHWLNIIIMCVGRMGITIAIQMICLVNAELYPTFVRNLGVMVCSSLCDIGGIITPFIVFRLREVWQALPLILFAVLGLLAAGVTLLLPETKGVALPETMKDAENLGRKAKPKENTIYLKVQTSEPSGT",Km,[8],8.1 µM
